{"source": "paper PMC8325119", "about": "“A Novel Class of Functionalized Synthetic Fluoroquinolones with Dual Antiproliferative - Antimicrobial Capacities” (Asian Pacific Journal of Cancer Prevention : APJCP, 2021)", "key": {"A375.S2 cell line": {"test_system": "A375.S2 cell line", "assay": "SRB cytotoxicity assay, A375.S2 melanoma cell line", "conditions": "Homo sapiens, A375-S2, 72 h, read-out: Cytotoxicity IC50 value, A375.S2 cell line"}, "PDL Fibroblasts": {"test_system": "PDL Fibroblasts", "assay": "SRB cytotoxicity on normal periodontal ligament fibroblasts, selective cytotoxicity", "type": "cell-based, Human", "conditions": "for IC50: Homo sapiens, Fibroblast, normal fibroblasts, SRB, 72 h, mean ± SD; for Selectivity index SI (K562): IC50 on PDL fibroblasts divided by IC50 on K562", "summary_of_the_method": "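Human periodontal ligament fibroblasts, a primary normal culture, tested by SRB colorimetric assay for cell viability. Selectivity ratio = IC50 on normal fibroblasts divided by IC50 on the pathological cell line.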"}, "[1]": {"test_system": "Staphylococcus aureus (S. aureus) ATCC 6538", "assay": "Quantitative antimicrobial assessment (MIC) against S. aureus", "type": "cell-based", "conditions": "for MIC potency compared with ciprofloxacin, S. aureus: in words"}, "MCF7 cell line": {"test_system": "MCF7 cell line", "assay": "SRB cytotoxicity assay, MCF7 breast cancer cell line", "conditions": "Homo sapiens, MCF7, 72 h, read-out: Cytotoxicity IC50 value, MCF7 cell line"}, "PANC 1 cell line": {"test_system": "PANC 1 cell line", "assay": "SRB cytotoxicity assay, PANC 1 pancreatic cancer cell line", "conditions": "Homo sapiens, PANC-1, 72 h, read-out: Cytotoxicity IC50 value, PANC 1 cell line"}, "T47D cell line": {"test_system": "T47D cell line", "assay": "cells", "conditions": "Homo sapiens, T47D, 72 h, read-out: Cytotoxicity IC50 value, T47D cell line", "summary_of_the_method": "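Cells were cultured in DMEM supplemented with FBS, HEPES buffer, L-glutamine and antibiotics, then exposed to compounds. Viability loss was read by SRB staining to give IC50.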"}, "A549 cell line": {"test_system": "A549 cell line", "assay": "SRB cytotoxicity assay, A549 lung cancer cell line", "conditions": "Homo sapiens, A549, 72 h, read-out: Cytotoxicity IC50 value, A549 cell line"}, "[2]": {"test_system": "Candida albicans (C. albicans) ATCC 1023", "assay": "Quantitative antimycotic assessment (MIC) against C. albicans", "type": "cell-based", "conditions": "in words"}, "K562 cell line": {"test_system": "K562 cell line", "assay": "SRB cytotoxicity assay, K562 leukaemia cell line", "conditions": "Homo sapiens, K562, 72 h"}, "HELA cell line": {"test_system": "HELA cell line", "assay": "SRB cytotoxicity assay, HELA cervical cancer cell line", "conditions": "Homo sapiens, HeLa, 72 h"}, "HCT116": {"test_system": "HCT116", "design": "method as in earlier work", "conditions": "colon cancer cells, Figure 1; ref Arabiyat et al. 2016a,b; 2017; Alabsi et al. 2018; Jumah 2018; AlShahrabi et al., 2020; read-out: IC50 against HCT116; cited from earlier work"}, "SW620": {"test_system": "SW620", "design": "method as in earlier work", "conditions": "colon cancer cells, Figure 1; ref Arabiyat et al. 2016a,b; 2017; Alabsi et al. 2018; Jumah 2018; AlShahrabi et al., 2020; read-out: IC50 against SW620; cited from earlier work"}, "[3]": {"conditions": "0.1-200 μg/mL range, NI = lack of cytotoxicity in range"}, "[4]": {"conditions": "read-out: Cytotoxicity IC50 value, K562 cell line, SRB, 72 h, 0.1-200 μg/mL range, mean ± SD, value in brackets"}, "[5]": {"conditions": "read-out: Cytotoxicity IC50 value, K562 cell line, SRB, 72 h, 0.1-200 μg/mL range, mean ± SD, NI = lack of cytotoxicity in range"}, "[6]": {"conditions": "read-out: Cytotoxicity IC50 value, HELA cell line, SRB, 72 h, 0.1-200 μg/mL range, mean ± SD, value in brackets"}, "[7]": {"conditions": "read-out: Cytotoxicity IC50 value, HELA cell line, SRB, 72 h, 0.1-200 μg/mL range, mean ± SD, NI = lack of cytotoxicity in range"}}, "note": "Where “and” joins values, the source holds several entries; their conditions need not be identical. Equal entries are not always repeated. Where two headings read alike, the source gives them in different places.", "data": [{"compound": "CCCCc1ccc(Nc2c(F)cc3c(=O)c(C(=O)O)cn(C4CC4)c3c2N)cc1", "note": "[4e, 8-Amino-1-cyclopropyl-6-fluoro-7-(4-butyl-phenylamino)-4-oxo-1,4-dihydro-quinoline-3-carboxylic acid]", "values": [{"measurement": "IC50", "setting": "A375.S2 cell line", "result": "79.2 µM and 32.4 µg/mL"}, {"measurement": "IC50", "setting": "PDL Fibroblasts; [3]", "result": "43 ± 3.02", "unit": "µM"}, {"measurement": "IC50", "setting": "PDL Fibroblasts; value in brackets", "result": 18.9, "unit": "µg/mL"}, {"measurement": "Selectivity index SI (K562)", "setting": "PDL Fibroblasts", "result": 8592}, {"measurement": "MIC", "setting": "[1]; Staphylococcus aureus, ATCC6538, Gram positive, ATCC 6538", "result": 0.32, "unit": "µM"}, {"measurement": "MIC potency compared with ciprofloxacin, S. aureus", "setting": "[1]", "result": "significantly more potent than ciprofloxacin"}, {"measurement": "IC50", "setting": "MCF7 cell line", "result": "107 µM and 44 µg/mL"}, {"measurement": "IC50", "setting": "PANC 1 cell line", "result": "20.8 µM and 8.5 µg/mL"}, {"measurement": "IC50", "setting": "T47D cell line", "result": "44.1 µM and 18 µg/mL"}, {"measurement": "IC50", "setting": "A549 cell line", "result": "25.1 µM and 10.3 µg/mL"}, {"measurement": "Antimycotic MIC potency compared with fluconazole, C. albicans", "setting": "[2]", "result": "more potent than antimycotic flucanozole"}, {"measurement": "IC50", "setting": "K562 cell line; [4]", "result": 0.002, "unit": "µg/mL"}, {"measurement": "IC50", "setting": "K562 cell line; [5]", "result": "0.005 ± 0.0009", "unit": "µM"}, {"measurement": "IC50", "setting": "HELA cell line; [6]", "result": 27.6, "unit": "µg/mL"}, {"measurement": "IC50", "setting": "HELA cell line; [7]", "result": "67.3 ± 6.64", "unit": "µM"}]}, {"compound": "CCCCc1ccc(-n2nnc3c4c(cc(F)c32)c(=O)c(C(=O)O)cn4C2CC2)cc1", "note": "[5e, 9-cyclopropyl-4-fluoro-3-(4-butyl-phenyl)-6-oxo-6,9-dihydro-3H-[1,2,3] triazolo[4,5-h]quinoline-7-carboxylic acid]", "values": [{"measurement": "IC50", "setting": "A375.S2 cell line", "result": "103 µM and 43.1 µg/mL"}, {"measurement": "IC50", "setting": "PDL Fibroblasts; [3]", "result": "72.6 ± 3.56", "unit": "µM"}, {"measurement": "IC50", "setting": "PDL Fibroblasts; value in brackets", "result": 30.4, "unit": "µg/mL"}, {"measurement": "Selectivity index SI (K562)", "setting": "PDL Fibroblasts", "result": 1.48}, {"measurement": "IC50", "setting": "MCF7 cell line", "result": "105 µM and 44.2 µg/mL"}, {"measurement": "IC50", "setting": "PANC 1 cell line", "result": "87.1 µM and 36.5 µg/mL"}, {"measurement": "IC50", "setting": "T47D cell line", "result": "97.6 µM and 41 µg/mL"}, {"measurement": "IC50", "setting": "A549 cell line", "result": "181 µM and 76 µg/mL"}, {"measurement": "Antimycotic MIC potency compared with fluconazole, C. albicans", "setting": "[2]", "result": "more potent than antimycotic flucanozole"}, {"measurement": "IC50", "setting": "K562 cell line; [4]", "result": 20.6, "unit": "µg/mL"}, {"measurement": "IC50", "setting": "K562 cell line; [5]", "result": "49 ± 7.2", "unit": "µM"}, {"measurement": "IC50", "setting": "HELA cell line; [6]", "result": 153, "unit": "µg/mL"}, {"measurement": "IC50", "setting": "HELA cell line; [7]", "result": "364 ± 22.8", "unit": "µM"}]}, {"compound": "CCn1cc(C(=O)O)c(=O)c2cc(F)c3c(nnn3-c3ccc(OC)cc3OC)c21", "note": "[13c, 3-(2,4-dimethoxy-phenyl)-9-ethyl-4-fluoro-6-oxo-6,9-dihydro-3H-[1,2,3] triazolo[4,5-h]quinoline-7-carboxylic acid]", "values": [{"measurement": "IC50", "setting": "A375.S2 cell line", "result": "487 µM and 201 µg/mL"}, {"measurement": "IC50", "setting": "PDL Fibroblasts; [3]", "result": "172 ± 17.8", "unit": "µM"}, {"measurement": "IC50", "setting": "PDL Fibroblasts; value in brackets", "result": 70.6, "unit": "µg/mL"}, {"measurement": "Selectivity index SI (MCF7)", "setting": "PDL Fibroblasts; IC50 on PDL fibroblasts divided by IC50 on MCF7", "result": 41.35}, {"measurement": "MIC potency compared with ciprofloxacin, S. aureus", "setting": "[1]", "result": "significantly more potent than ciprofloxacin"}, {"measurement": "IC50", "setting": "MCF7 cell line", "result": "4.15 µM and 1.71 µg/mL"}, {"measurement": "IC50", "setting": "PANC 1 cell line", "result": "138 µM and 56.6 µg/mL"}, {"measurement": "IC50", "setting": "T47D cell line", "result": "182 µM and 74.7 µg/mL"}, {"measurement": "IC50", "setting": "A549 cell line", "result": "662 µM and 272 µg/mL"}, {"measurement": "IC50", "setting": "K562 cell line; [4]", "result": 28.2, "unit": "µg/mL"}, {"measurement": "IC50", "setting": "K562 cell line; [5]", "result": "68.7 ± 8.04", "unit": "µM"}, {"measurement": "IC50", "setting": "HELA cell line; [6]", "result": 179, "unit": "µg/mL"}, {"measurement": "IC50", "setting": "HELA cell line; [7]", "result": "435 ± 71.7", "unit": "µM"}]}, {"compound": "CCn1cc(C(=O)O)c(=O)c2cc(F)c(Nc3ccc(Cl)cc3)c(N)c21", "note": "[A (X =Cl)]", "values": [{"measurement": "IC50", "setting": "HCT116", "result": 3.5, "unit": "µM"}, {"measurement": "IC50", "setting": "SW620", "result": 11.7, "unit": "µM"}]}]}
